Columns and labels:
[1] = test system: herpes simplex virus (HSV-1) KOS321 strain; test: Antiviral assay, HSV-1 infectivity (plaque forming units); assay type: cell-based; settings: African green monkey kidney cells; virus pre-incubated with compound 10 min
Source text: In panel A, the results are expressed as a percentage of the number of viral plaque forming units (PFU) formed in cells infected with the compound-treated virions relative to mock-treated controls. In panel B, the results are expressed as a percentage of the average area of 20 viral plaques formed in the continuous presence of compound relative to mock-treated control cells. Monolayer cultures of African green monkey kidney cells[35] and herpes simplex virus (HSV-1) KOS321 strain[36] were used throughout. The antiviral assays on the compounds were performed as described by Nyberg et al.[13] Briefly, the effects of the compounds on the infection of cells by exogenously added virus were tested by mixing serial fivefold dilutions of compound (at 0.032-20 μM) with approximately 200 plaque forming units of the virus. Following incubation of the virus and compound for 10 min at room temperature, the mixture was added to the cells and left on the cell monolayer for 2 h at 37° C. Subsequently, the inoculum was aspirated and replaced with an overlay medium of 1% methylcellulose solution in Eagle's minimum essential medium (EMEM). The viral plaques that developed after incubation of cells for 3 days at 37° C. were stained with 1% crystal violet solution and counted. The effects of the compounds on cell-to-cell spread of HSV-1 were tested by adding serial fivefold dilutions of compound (at 0.032-20 μM) in the serum-free overlay medium to cells after their infection with HSV-1. After incubation of the compound with the cells for 3 days at 37° C., the images of 20 plaques were captured and subjected to area determination using IM500 software (Leica).

VEGF = biological target: T1, VEGF (Homo sapiens, UniProt P15692); test: SPR based solution affinity assay, growth factor binding (VEGF); settings: heparin-coated sensorchip, HBS-EP buffer, 25° C.
T1 sequence (P15692 27-191 isoform P15692-4): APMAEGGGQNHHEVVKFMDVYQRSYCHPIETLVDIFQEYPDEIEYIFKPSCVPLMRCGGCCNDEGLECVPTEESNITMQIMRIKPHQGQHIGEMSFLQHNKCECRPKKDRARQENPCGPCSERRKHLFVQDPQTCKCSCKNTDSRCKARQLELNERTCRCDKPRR
Method: Binding affinities of ligands for the growth factors FGF-1, FGF-2 and VEGF were measured using a surface plasmon resonance (SPR) based solution affinity assay. The principle of the assay is that heparin immobilised on a sensorchip surface distinguishes between free and bound growth factor in an equilibrated solution of the growth factor and a ligand. Upon injection of the solution, the free growth factor binds to the immobilised heparin, is detected as an increase in the SPR response and its concentration thus determined. A decrease in the free growth factor concentration as a function of the ligand concentration allows for the calculation of the dissociation constant, Kd. It is important to note that ligand binding to the growth factors can only be detected when the interaction involves the HS binding site, thus eliminating the chance of evaluating non-specific binding to other sites on the protein. A 1:1 stoichiometry has been assumed for all protein:ligand interactions.
For the testing of growth factor binding activity, heparin-coated sensorchips were used. Their preparation, via immobilisation of biotinylated BSA-heparin on a streptavidin-coated sensorchip, has been described.[5] Heparin has also been immobilised via aldehyde coupling using either adipic acid dihydrazide or 1,4-diaminobutane. […] Ligands binding to FGF-1 and VEGF were measured in HBS-EP buffer (10 mM HEPES, pH 7.4, 150 mM NaCl, 3.0 mM EDTA and 0.005% (v/v) polysorbate 20), while binding to FGF-2 was measured in HBS-EP buffer containing 0.3 M NaCl.[5] […] For each assay mixture, 50-200 μL of solution was injected at 5-40 μL/min and the relative binding response measured. […]
Sensorgram data were analysed using the BIAevaluation software (BIAcore). […]
[formula] and the binding equation[5] can be expressed as
The Kd values given are the values fit, using the binding equation, to a plot of [P] versus [L]total. Where Kd values were measured in duplicate, the values represent the average of the duplicate measurements. […]

Substance	IC50 [1] [nM]	Kd (VEGF) [nM]
Benzyl Glycoside Polysulfate [PG500]	2000	1.72 ± 0.19
Octyl Glycoside Polysulfate [PG501]	1000	1.67 ± 0.11

Source: patent publication US8173606B2, “Sulfated oligosaccharide derivatives” (Progen Pharmaceuticals Limited, priority 2004, dated 2012)
